The values below come from patent US20040053355A1, “Modular approach to on-line synthesis, drug discovery and biochemical transformations using immobilized enzyme reactors” (priority 2000, published 2004).

SMILES strings stand for the structures.

The target in this experiment is T1, dopamine beta-hydroxylase immobilized onto Glut-P (DBH-Glut-P) (Bos taurus, UniProt P15101).
T1 construct: purchased
T1 sequence (P15101 1-610): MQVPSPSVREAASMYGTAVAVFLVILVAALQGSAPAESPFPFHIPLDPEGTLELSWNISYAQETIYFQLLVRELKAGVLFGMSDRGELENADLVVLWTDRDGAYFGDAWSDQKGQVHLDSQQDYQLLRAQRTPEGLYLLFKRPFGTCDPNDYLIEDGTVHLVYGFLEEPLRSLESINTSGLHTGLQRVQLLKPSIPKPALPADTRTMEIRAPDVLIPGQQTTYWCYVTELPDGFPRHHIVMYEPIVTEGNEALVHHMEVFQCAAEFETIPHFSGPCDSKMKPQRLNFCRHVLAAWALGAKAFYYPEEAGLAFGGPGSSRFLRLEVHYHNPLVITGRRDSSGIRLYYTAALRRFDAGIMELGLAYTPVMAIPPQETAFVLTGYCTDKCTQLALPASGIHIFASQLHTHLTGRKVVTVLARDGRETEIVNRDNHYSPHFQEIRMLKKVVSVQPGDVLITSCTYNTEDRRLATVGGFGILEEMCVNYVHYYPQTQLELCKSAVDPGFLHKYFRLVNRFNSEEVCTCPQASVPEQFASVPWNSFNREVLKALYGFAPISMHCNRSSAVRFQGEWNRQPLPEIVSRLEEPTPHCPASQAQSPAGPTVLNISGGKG
The experiment can be described thus: DBH immobilized onto Glut-P stationary phase (DBH-Glut-P, DBH-Glut-P-SP), batch assay. To be noted: hydrochloride. It counts as biochemical, bovine. The protocol: The enzyme was assayed as follows: four different solutions were prepared A, B, C and D (final concentration). (A) 500 μL of enzyme solution (10 μg/ml); B: 275 μL sodium acetate buffer (10 mM, pH 5.5), 50 μL cupric sulphate (5 μM); C: 25 μL catalase (5 μg/ml), 50 μL ascorbic acid (10 mM), 50 μl sodium fumarate (10 mM); D: 50 μl substrate (5 mM). Solution B was added to solution A, the resulting solution was mixed for 1 min. Solution C was added and the resulting solution was mixed for an additional minute. The reaction was started with the addition of the substrate (D), after which the reaction solution was incubated for 5 min at 37° C. in a shaking bath. […]
The packing material was washed three times with sodium acetate buffer (0.1M, pH 6). […] The enzyme solution (8-10 μg in 1 ml sodium acetate buffer] was added to the packing material, the mixture was vortexed for 2 min and then placed on a shaker/rotator for 6 h at ambient temperature. At the end of 6 h, the suspension was centrifuged, the supernatant decanted and the packing material washed three additional times with the buffer. The amount of residual enzyme was determined utilizing the same procedure as that carried out for the enzyme immobilized onto IAM.

For the compound `Cl.NCCc1ccc(O)cc1` [Tyramine, tyramine hydrochloride], the Vmax is reported as 0.112^− μmol/mg/min.
